Results published in patent US20250090510A1, “eIF4G1-eIF1 INHIBITORS AND USE THEREOF” (YEDA RESEARCH AND DEVELOPMENT CO. LTD., priority 2022, published 2025).
pIC50: −log10 of the molar value.

Assays:
eIF4G1 = target: T1, eIF4G1 (Homo sapiens, UniProt Q04637); test: Intrinsic fluorescence of His-eIF4G1; assay type: binding; details: 0-256 μM, 5 minutes, excitation 280 nm, emission 350 nm; read-out: IC50, loss of eIF4G1 intrinsic fluorescence
T1 construct: The pET-28-His-bdSumo-eIF4G1 (675-1129) was generated using eIF4G1 (675-1129) as insert and pET-28-14His-bdSumo as backbone; bdSUMO (N); made in house; host or cells: E. coli BL21
T1 sequence (Q04637 675-1129): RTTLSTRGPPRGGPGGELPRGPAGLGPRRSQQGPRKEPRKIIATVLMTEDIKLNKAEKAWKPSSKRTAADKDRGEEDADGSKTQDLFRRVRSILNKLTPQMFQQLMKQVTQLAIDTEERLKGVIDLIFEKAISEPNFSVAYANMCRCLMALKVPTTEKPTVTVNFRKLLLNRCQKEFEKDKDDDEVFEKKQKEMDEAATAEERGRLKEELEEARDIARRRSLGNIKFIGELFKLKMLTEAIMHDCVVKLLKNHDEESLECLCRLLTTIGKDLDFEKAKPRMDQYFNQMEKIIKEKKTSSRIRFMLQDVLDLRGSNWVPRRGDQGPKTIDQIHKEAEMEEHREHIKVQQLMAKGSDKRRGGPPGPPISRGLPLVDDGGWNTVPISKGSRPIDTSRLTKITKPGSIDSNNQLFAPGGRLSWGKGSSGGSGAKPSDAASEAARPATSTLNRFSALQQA
Excerpt: FIGS. 1A-G: Identification and initial characterization of eIF1-eIF4G1 inhibitors using a high-throughput drug screen (HTS). (1A) A flowchart describing the steps of the recombinant eIF1-eIF4G1 split-RL HTS. (1B) Selection of drugs that inhibit leaky scanning. HEK293T cells were transfected with a short 5′UTR bearing GFP reporter gene described on the top, treated with the indicated HTS hits, and then analyzed by western blot with GFP antibody. US and DS denote upstream and downstream AUG initiation sites, respectively. (1C) A graph showing the change in the ratio of the upstream and downstream AUG following treatment with the indicated drugs. (1D) The chemical structure of the eIF1-eIF4G1 inhibitors, i14G1-10 and i14G1-12. (1E) His-tagged eIF4G1 and His-tagged eIF1 were expressed in BL21 bacteria and purified using nickel NTA beads. Purified His-tagged eIF4G1 and His-tagged eIF1 were incubated with the indicated doses of either i14G1-10 (0-256 μM) or i14G1-12 (0-256 μM) for 5 minutes, followed by fluorescence measurement. […] IC50 was calculated using Graphpad prism 9. […]
Intrinsic fluorescence of His-eIF1 and His-eIF4G1. […] After 5 minutes, fluorescence (280/350) was measured on Cytation 5 multi-mode reader (Biotek). The fluorescence intensity values corresponding to respective concentration in both i14G1-10 and i14G1-12 treatments were plotted and IC50 was calculated using GraphPad Prism 9.0. […]

human blood cells = test: Effect on host blood cells in the parasitemia assay; details: i14G1-10 20 uM, i14G1-12 10 uM; 1 hour
Protocol: Parasitemia assay. The NF54 strain of the Plasmodium falciparum was used for the Survival test. Parasites were grown in RPMI medium pH 7.4, 25 mg/ml HEPES, 50 μg/ml hypoxanthine, 2 mg/ml sodium bicarbonate, 20 μg/ml gentamycin, and 0.5% (w/v) Albumax II (Invitrogen). Pooled donor red blood cells, provided by the Israeli blood bank, at 4% hematocrit, and incubated at 37° C. in a gas mixture of 1% 02, 5% CO2 in N2 were used.
Parasitaemia levels were measured 24 hours later.

Structure (SMILES) | pIC50 (eIF4G1) | effect on human blood cells (human blood cells)
Cn1ccnc1S/C(=C/C=C(C#N)C#N)c1ccc(Cl)cc1 [i14G1-12] | 4.23 | 
O=C(/C=C/Sc1ccc(C(F)(F)F)cn1)c1ccccc1 [i14G1-10] |  | not adversely affected
